Results from publication PMC8145986, “In Vitro Enzymatic and Kinetic Studies, and In Silico Drug-Receptor Interactions, and Drug-Like Profiling of the 5-Styrylbenzamide Derivatives as Potential Cholinesterase and β-Secretase Inhibitors with Antioxidant Properties” (Antioxidants, 2021).

Experiments:
[1] = Metal chelation study by UV-vis spectrometry; format: physicochemical; conditions: room temperature
Description: The metal chelating ability of compounds 2a and 3b toward Cu^2+ and Zn^2+ was evaluated by ultraviolet–visible (UV–Vis) spectrometry. A solution of the test compound in methanol (30 μM, final concentration) alone or in the presence of CuCl2 or ZnCl2 (30 μM, final concentration) was stirred at RT for 30 min. The absorption spectra were recorded at room temperature on a PerkinElmer UV/Vis spectrometer (Perkin Elmer, Inc., Midrand, Johannesburg, South Africa) at wavelengths ranging from 200 to 1200 nm.
The ability of compound 2a to chelate Cu^2+ or Zn^2+ was assessed using a UV–vis spectrophotometric assay with a wavelength in the region of 200–1200 nm. The absorption spectrum of 2a (Figure 2) acquired in methanol at room temperature is characterized by four discernible absorption bands, around λ 300, 500, 690, and 1000 nm, respectively. These bands are reduced to two distinct bands of different intensities in the presence of either CuCl2 or ZnCl2. […] A bathochromic shift of the band found around 500 nm in the spectrum of 2a to around 580 nm in the presence of ZnCl2 occurred with no broadening. 2-Aminobenzamide is known to bind the Cu(II) ion through the amino-N and amido-O atoms.

A549 cells = assay: LPS-induced ROS production in A549 cells (H2DCF-DA); format: cell-based, human; conditions: 10 μM compound, LPS 1 μg/mL, 24 h (Figure 9b)
Description: (§1) Mitochondrial ROS levels in Vero and A549 cell lines was measured using the 2′,7′-dichlorofluorescin diacetate (H2DCF-DA) (Sigma-Aldrich, St. Louis, MO, USA, Merck, Darmstadt, Germany), fluorescent probe. Cells (1 × 10^5) were seeded in 96 well plates and incubated overnight at 37 °C in 5% CO2. A minimum non-toxic concentration (10 μM) of compounds (2a and 3b) was added separately as treatment and further incubated for an hour, after which LPS (1 μg/mL) was added to induce the production of ROS. After 24 h of incubation, the media was aspirated, cells were rinsed with PBS, and followed by the addition of H2DCF-DA (10 μM) for 30 min in the dark. The absorbance of the fluorescence was measured using a microplate reader (VarioSkan Flash, Thermo Fisher Scientific, Finland) at 485 and 535 nm values of excitation and emission, respectively. Data was processed and analysed using ANOVA, which was followed by Duncan’s multiple comparison test.

[2] = Nitric oxide radical scavenging assay (Griess reaction); conditions: NO radical scavenging
Description: Nitric oxide was generated from sodium nitroprusside and measured by Griess’ reaction following the literature method. The experiment was done in triplicate with ascorbic acid (vitamin C) used as a positive control for the assay. In total, 50 μL of each of the test compounds and the positive control at various concentrations (0.1, 0.5, 1.0, 5.0, and 10.0 μM in methanol) were added to each designated well of the 96 well plate. A total of 50 μL of sodium nitroprusside (10 mM) prepared in saline phosphate buffer (pH = 7.4) was then added to each well and the reaction mixture incubated at room temperature for 3 h. Afterward, 300 μL of the Griess reagent (a mixture of 0.2% N-(1-naphthyl)ethylenediamine dihydrochloride and 2% sulfanilamide in […]) was added to each well and absorbance was read at 546 nm using a Varioskan flash microplate spectrophotometer reader.

[3] = DPPH radical scavenging assay; conditions: read-out: IC50 (SD) DPPH
Description: The antioxidant activities of the test compounds against ascorbic acid (Sigma Aldrich, Saint Louis, MO, USA) as a positive control were evaluated using a 2,2-diphenyl-1-picrylhydrazyl (DPPH) radical scavenging assay developed by Zhu et al., as described in our previous study. Duplicate solutions (20 μL) of the test compounds and ascorbic acid in DMSO (final concentrations: 5, 10, 25, 50, and 100 μM) were added into each designated well of a 96-well plate. A solution of DPPH (0.20 mM) (20 μL) in methanol was added to each well, and the 96-well plate was wrapped with aluminium foil and incubated in the dark for 45 min. Five absorbance readings were recorded at 512 nm using a Varioskan flash microplate spectrophotometer reader. The average values obtained from the absorbance readings were used to determine the IC50 and standard deviation values.

Vero cells = assay: LPS-induced ROS production in Vero cells (H2DCF-DA); format: cell-based, monkey; conditions: 10 μM compound, LPS 1 μg/mL, 24 h (Figure 9a)
Description: as §1

With `NC(=O)c1cc(/C=C/c2ccccc2)ccc1N` [Compound 2a, (E)-2-Amino-5-styrylbenzamide] the “chelation of Cu2+” value ([1]; 30 μM compound and 30 μM CuCl2 in methanol) was “selective for Cu (II) ion”, the “chelation of Zn2+” value ([1]; 30 μM compound and 30 μM ZnCl2 in methanol) was “relatively poor chelating ability” and the ROS reduction (A549 cells) was “about 65%”. For the same compound, the IC50 [2] was 10.3 ± 0.12 µM, the IC50 [3] was 5.8 ± 0.32 µM and the “suppression of LPS-induced ROS” value (Vero cells) was “about 60%”.
